Measured values: US20250382287A1, “PHARMACEUTICALLY ACCEPTABLE SALT AND CRYSTAL FORM OF NITROGEN-CONTAINING BRIDGE HETEROCYCLIC DERIVATIVE, AND METHOD FOR PREPARING SAME” (JIANGSU HENGRUI PHARMACEUTICALS CO., LTD., priority 2022, published 2025)

Experiments:
[1] = Influencing factor stability (open flasks, light, high temperature, high humidity, 30 days)
[2] = DVS (dynamic vapor sorption) hygroscopicity testing; type: physicochemical; settings: for hygroscopic weight gain under normal storage conditions / hygroscopic weight gain under accelerated experimental conditions / hygroscopic weight gain under extreme conditions: DVS; for hygroscopic weight gain under normal storage conditions: 25° C. and 60% RH; for hygroscopic weight gain under accelerated experimental conditions: 70% RH; for hygroscopic weight gain under extreme conditions: 90% RH; for crystal form re-identification after DVS testing: XRPD after DVS
Procedure: DVS refers to dynamic vapor sorption: Surface Measurement Systems instrinsic was adopted; the humidity started at 50%, the humidity range investigated was 0%-95%, and the humidity was increased in increments of 10%; the criterion was that each gradient mass change dM/dT is less than 0.002%, TMAX 360 min, two cycles.

[3] = Long-term/accelerated stability (sealed, 25° C./60% RH and 40° C./75% RH); settings: for chemical stability / physical stability: 25° C./60% RH and 40° C./75% RH
[4] = Light exposure (4500 Lux), 5 days, open flask
[5] = Light exposure (4500 Lux), 10 days, open flask
[6] = Light exposure (4500 Lux), 30 days, open flask
[7] = light exposure (4500 Lux), 40° C. and 60° C., high humidity RH 75% and 92.5%, 30 days
[8] = 25° C., 60% RH, sealed, 1 month
[9] = 25° C., 60% RH, sealed, 2 months
[10] = 25° C., 60% RH, sealed, 3 months
[11] = 25° C., 60% RH, sealed, 6 months
[12] = 40° C., 75% RH, sealed, 1 month
[13] = 40° C., 75% RH, sealed, 2 months
[14] = 40° C., 75% RH, sealed, 3 months
[15] = 40° C., 75% RH, sealed, 6 months

For `CCO[C@H]1C[C@H]2CC[C@@](c3ccc(C(=O)O)cc3)(C1)N2Cc1c(OC)cc(C)c2[nH]ccc12.Cc1ccc(S(=O)(=O)O)cc1` [crystal form I of the p-toluenesulfonate, 4-((1S,3S,5R)-3-ethoxy-8-((5-methoxy-7-methyl-1H-indol-4-yl)methyl)-8-azabicyclo[3.2.1]octan-1-yl)benzoic acid-p-toluenesulfonate], the Color and state ([1]; 40° C., 5 days, open flask) was “White solid”, the Purity % ([1]; 40° C., 5 days, open flask) was 99.8% and the Salt form ([1]; 40° C., 5 days, open flask) was “No change”. For the same compound, the Color and state ([1]; 40° C., 10 days, open flask) was “White solid”, the Purity % ([1]; 40° C., 10 days, open flask) was 99.7% and the Salt form ([1]; 40° C., 10 days, open flask) was “No change”. For the same compound, the Color and state ([1]; 40° C., 30 days, open flask) was “White solid”, the Purity % ([1]; 40° C., 30 days, open flask) was 99.5% and the Salt form ([1]; 40° C., 30 days, open flask) was “No change”. For the same compound, the Color and state ([1]; 60° C., 5 days, open flask) was “White solid”, the Purity % ([1]; 60° C., 5 days, open flask) was 99.8% and the Salt form ([1]; 60° C., 5 days, open flask) was “No change”. The Color and state ([1]; 60° C., 10 days, open flask) was “White solid”, the Purity % ([1]; 60° C., 10 days, open flask) was 99.8% and the Salt form ([1]; 60° C., 10 days, open flask) was “No change”. For the same compound, the Color and state ([1]; 60° C., 30 days, open flask) was “White solid”, the Purity % ([1]; 60° C., 30 days, open flask) was 99.7% and the Salt form ([1]; 60° C., 30 days, open flask) was “No change”. The Color and state ([1]; 75% RH, 5 days, open flask) was “White solid”, the Purity % ([1]; 75% RH, 5 days, open flask) was 99.9% and the Salt form ([1]; 75% RH, 5 days, open flask) was “No change”. For the same compound, the Color and state ([1]; 75% RH, 10 days, open flask) was “White solid”, the Purity % ([1]; 75% RH, 10 days, open flask) was 99.9% and the Salt form ([1]; 75% RH, 10 days, open flask) was “No change”. The Color and state ([1]; 75% RH, 30 days, open flask) was “White solid”, the Purity % ([1]; 75% RH, 30 days, open flask) was 99.9% and the Salt form ([1]; 75% RH, 30 days, open flask) was “No change”. For the same compound, the Color and state ([1]; 92.5% RH, 5 days, open flask) was “White solid”, the Purity % ([1]; 92.5% RH, 5 days, open flask) was 100.0% and the Salt form ([1]; 92.5% RH, 5 days, open flask) was “No change”. The Color and state ([1]; 92.5% RH, 10 days, open flask) was “White solid”, the Purity % ([1]; 92.5% RH, 10 days, open flask) was 100.0% and the Salt form ([1]; 92.5% RH, 10 days, open flask) was “No change”. The Color and state ([1]; 92.5% RH, 30 days, open flask) was “White solid”, the Purity % ([1]; 92.5% RH, 30 days, open flask) was 99.9% and the Salt form ([1]; 92.5% RH, 30 days, open flask) was “No change”. For the same compound, the Color and state ([1]; Initial, 0 days) was “White solid”, the Purity % ([1]; Initial, 0 days) was 100.0% and the Color and state [1, 4] was “White solid”. The Purity % [1, 4] was 99.9%, the Salt form [1, 4] was “No change” and the Color and state [1, 5] was “White solid”. The Purity % [1, 5] was 99.9%, the Salt form [1, 5] was “No change” and the Color and state [1, 6] was “White solid”. The Purity % [1, 6] was 99.7%, the Salt form [1, 6] was “No change” and the chemical stability [1, 7] was “good”. For the same compound, the physical stability [1, 7] was “good”, the “hygroscopic weight gain under normal storage conditions” value [2] was “about 1.22%” and the “hygroscopic weight gain under accelerated experimental conditions” value [2] was “about 1.37%”. For the same compound, the “hygroscopic weight gain under extreme conditions” value [2] was “about 1.87%”, the “crystal form re-identification after DVS testing” value [2] was “did not change” and the “Purity %” value [3, 8] was 100.0%. The Salt form [3, 8] was “No change”, the “Purity %” value [3, 9] was 100.0% and the Salt form [3, 9] was “No change”. The “Purity %” value [3, 10] was 100.0%, the Salt form [3, 10] was “No change” and the “Purity %” value [3, 11] was 100.0%. The Salt form [3, 11] was “No change”, the chemical stability ([3]; 6 months) was “relatively good” and the physical stability ([3]; 6 months) was “relatively good”. For the same compound, the “Purity %” value [3, 12] was 100.0%, the Salt form [3, 12] was “No change” and the “Purity %” value [3, 13] was 99.8%. The Salt form [3, 13] was “No change”, the “Purity %” value [3, 14] was 99.8% and the Salt form [3, 14] was “No change”. For the same compound, the “Purity %” value [3, 15] was 99.7%, the Salt form [3, 15] was “No change” and the “Purity %” value ([3]; Initial) was 100.0%.
With `CCO[C@H]1C[C@H]2CC[C@@](c3ccc(C(=O)O)cc3)(C1)N2Cc1c(OC)cc(C)c2[nH]ccc12.Cl` [crystal form II of the hydrochloride, 4-((1S,3S,5R)-3-ethoxy-8-((5-methoxy-7-methyl-1H-indol-4-yl)methyl)-8-azabicyclo[3.2.1]octan-1-yl)benzoic acid-hydrochloride] the Color and state ([1]; 40° C., 5 days, open flask) was “White solid”, the Purity % ([1]; 40° C., 5 days, open flask) was 99.4% and the Salt form ([1]; 40° C., 5 days, open flask) was “No change”. The Color and state ([1]; 40° C., 10 days, open flask) was “White solid”, the Purity % ([1]; 40° C., 10 days, open flask) was 99.3% and the Salt form ([1]; 40° C., 10 days, open flask) was “No change”. For the same compound, the Color and state ([1]; 40° C., 30 days, open flask) was “White solid”, the Purity % ([1]; 40° C., 30 days, open flask) was 98.6% and the Salt form ([1]; 40° C., 30 days, open flask) was “No change”. The Color and state ([1]; 60° C., 5 days, open flask) was “White solid”, the Purity % ([1]; 60° C., 5 days, open flask) was 99.4% and the Salt form ([1]; 60° C., 5 days, open flask) was “No change”. For the same compound, the Color and state ([1]; 60° C., 10 days, open flask) was “White solid”, the Purity % ([1]; 60° C., 10 days, open flask) was 98.8% and the Salt form ([1]; 60° C., 10 days, open flask) was “No change”. For the same compound, the Color and state ([1]; 60° C., 30 days, open flask) was “White solid”, the Purity % ([1]; 60° C., 30 days, open flask) was 97.4% and the Salt form ([1]; 60° C., 30 days, open flask) was “No change”. For the same compound, the Color and state ([1]; 75% RH, 5 days, open flask) was “White solid”, the Purity % ([1]; 75% RH, 5 days, open flask) was 100.0% and the Salt form ([1]; 75% RH, 5 days, open flask) was “No change”. For the same compound, the Color and state ([1]; 75% RH, 10 days, open flask) was “White solid”, the Purity % ([1]; 75% RH, 10 days, open flask) was 100.0% and the Salt form ([1]; 75% RH, 10 days, open flask) was “No change”. The Color and state ([1]; 75% RH, 30 days, open flask) was “White solid”, the Purity % ([1]; 75% RH, 30 days, open flask) was 100.0% and the Salt form ([1]; 75% RH, 30 days, open flask) was “No change”. For the same compound, the Color and state ([1]; 92.5% RH, 5 days, open flask) was “White solid”, the Purity % ([1]; 92.5% RH, 5 days, open flask) was 100.0% and the Salt form ([1]; 92.5% RH, 5 days, open flask) was “No change”. For the same compound, the Color and state ([1]; 92.5% RH, 10 days, open flask) was “White solid”, the Purity % ([1]; 92.5% RH, 10 days, open flask) was 100.0% and the Salt form ([1]; 92.5% RH, 10 days, open flask) was “No change”. For the same compound, the Color and state ([1]; 92.5% RH, 30 days, open flask) was “White solid”, the Purity % ([1]; 92.5% RH, 30 days, open flask) was 100.0% and the Salt form ([1]; 92.5% RH, 30 days, open flask) was “No change”. For the same compound, the Color and state ([1]; Initial, 0 days) was “White solid”, the Purity % ([1]; Initial, 0 days) was 100.0% and the Salt form ([1]; Initial, 0 days) was “Crystal form”. For the same compound, the Color and state [1, 4] was “White solid”, the Purity % [1, 4] was 99.8% and the Salt form [1, 4] was “No change”. For the same compound, the Color and state [1, 5] was “White solid”, the Purity % [1, 5] was 99.2% and the Salt form [1, 5] was “No change”. The Color and state [1, 6] was “White solid”, the Purity % [1, 6] was 96.5% and the Salt form [1, 6] was “No change”. The “chemical stability under high humidity conditions” value ([1]; high humidity conditions only, 30 days) was “good”, the physical stability [1, 7] was “good” and the “hygroscopic weight gain under normal storage conditions” value [2] was “about 3.93%”. The “hygroscopic weight gain under accelerated experimental conditions” value [2] was “about 4.28%”, the “hygroscopic weight gain under extreme conditions” value [2] was “about 5.00%” and the “crystal form re-identification after DVS testing” value [2] was “did not change”. The “Purity %” value [3, 8] was 100.0%, the “Purity %” value [3, 9] was 100.0% and the “Purity %” value [3, 10] was 100.0%. For the same compound, the Salt form [3, 10] was “No change”, the “Purity %” value [3, 11] was 100.0% and the Salt form [3, 11] was “No change”. The chemical stability ([3]; 6 months) was “good”, the physical stability ([3]; 6 months) was “good” and the “Purity %” value [3, 12] was 100.0%. The “Purity %” value [3, 13] was 100.0%, the “Purity %” value [3, 14] was 99.9% and the “Purity %” value [3, 15] was 99.9%. The “Purity %” value ([3]; Initial) was 100.0%.
